Patent US11213529B2, “Salt of substituted urea derivative and use thereof in medicine” (SUNSHINE LAKE PHARMA CO. LTD., priority 2017, dated 2022)
Where two headings read alike, the source gives them in different places.

Assays:
[1] = Pharmacokinetics experiments of the salts of compound (I), oral capsules; assay type: in vivo, Beagle dogs
Experimental: The free base 1-(5-(tert-butyl)isoxazol-3-yl)-3-(4-((4-(3-morpholinopropoxy)phenyl) ethynyl)phenyl)urea, various salts or crystalline forms thereof were filled into capsules for oral administration respectively. Male Beagle dogs (6-10 kg) were grouped randomly, each group has 3, one was administered with free base by oral, others with various salts or crystalline forms thereof by oral at a dosage of 5 mg/kg. Blood samples were collected at 0.25, 0.5, 1.0, 2.0, 4.0, 6.0, 8.0, 12 and 24 hours after the administration. Standard curve was plotted based on concentrations of the samples in a suitable range, the concentrations of test compounds in plasma samples were determined by using Agilent 6430 LC-MS/MS under MRM mode, and quantitative analysis was performed. Pharmacokinetic parameters were calculated according to drug concentration-time curve using a noncompartmental method by WinNonLin 6.3 software.

[2] = for Purity/%: HPLC
Text: Samples were taken at fifth and tenth day, appearance was observed and purity was detected by HPLC.

[3] = for Appearance / Purity/%: illumination 4500±500 lx, UV; for Purity/%: HPLC
[4] = dog, male Beagle dogs, oral capsule, 5 mg/kg, plasma
[5] = male Beagle dogs, oral capsule, 5 mg/kg, plasma
[6] = High humidity (25° C., RH 90% ± 5%), 0 day
[7] = High humidity (25° C., RH 90% ± 5%), 5 days
[8] = High humidity (25° C., RH 90% ± 5%), 10 days
[9] = High temperature (60° C. ± 2° C.), 0 day
[10] = High temperature (60° C. ± 2° C.), 5 days
[11] = High temperature (60° C. ± 2° C.), 10 days

CC(C)(C)c1cc(NC(=O)Nc2ccc(C#Cc3ccc(OCCCN4CCOCC4)cc3)cc2)no1 [Free base, 1-(5-(tert-butyl)isoxazol-3-yl)-3-(4-((4-(3-morpholinopropoxy)phenyl)ethynyl)phenyl)urea]
AUC(0-inf) [1, 4]: 423 ng·h/mL
AUC(0-t) [1, 4]: 389 ng·h/mL
MRT inf [1, 4]: 7.52 h
half-life [1, 4]: 5.95 h
Cmax ([1]; dog, male Beagle dogs, oral capsule, 5 mg/kg, plasma, read-out: Cmax): 60.9 ng/mL
Tmax ([1]; dog, male Beagle dogs, oral capsule, 5 mg/kg, plasma, read-out: Tmax): 1.67 h

CC(C)(C)c1cc(NC(=O)Nc2ccc(C#Cc3ccc(OCCCN4CCOCC4)cc3)cc2)no1.O=S(=O)(O)c1ccccc1 [Benzene sulfonate crystaline form I]
absorption ([1]; beagle dogs, oral 5 mg/kg): faster
exposure level compared with the free base ([1]; beagle dogs, oral 5 mg/kg): higher
AUCINF [1, 5]: 592 ng·h/mL
AUClast [1, 5]: 575 ng·h/mL
Cmax [1, 5]: 92.3 ng/mL
MRTINF [1, 5]: 6.55 h
T1/2 [1, 5]: 5.26 h
Tmax [1, 5]: 1 h
Appearance [2, 6]: yellow
Purity/% [2, 6]: 98.61%
Appearance [2, 7]: yellow
Hygroscopic weight gain/% [2, 7]: 0.388%
Purity/% [2, 7]: 98.59%
Appearance [2, 8]: yellow
Hygroscopic weight gain/% [2, 8]: 1.100%
Purity/% [2, 8]: 98.59%
Appearance [2, 9]: yellow
Purity/% [2, 9]: 98.61%
Appearance [2, 10]: yellow
Purity/% [2, 10]: 98.64%
Appearance [2, 11]: yellow
Purity/% [2, 11]: 98.61%
hygroscopicity characteristics ([2]; from weight gain under high humidity for 10 days): slightly hygroscopicity (less than 2% but no less than 0.2%)
change of appearance and purity ([2]; high humidity (25° C., RH 90%±5%)): have not been changed distinctly
change of appearance and purity ([2]; high temperature (60° C.±2° C.)): have not been changed distinctly
change of appearance and purity ([3]; illumination): have not been changed distinctly
Appearance ([3]; 0 day): yellow
Purity/% ([3]; 0 day): 98.61%
Appearance ([3]; 5 days): yellow
Purity/% ([3]; 5 days): 98.67%
Appearance ([3]; 13 days): yellow
Purity/% ([3]; 13 days): 98.71%

CC(C)(C)c1cc(NC(=O)Nc2ccc(C#Cc3ccc(OCCCN4CCOCC4)cc3)cc2)no1.Cl [Hydrochloride crystaline form I]
AUCINF [1, 5]: 371 ng·h/mL
AUClast [1, 5]: 358 ng·h/mL
Cmax [1, 5]: 51.2 ng/mL
MRTINF [1, 5]: 6.5 h
T1/2 [1, 5]: 4.86 h
Tmax [1, 5]: 1.67 h

Br.CC(C)(C)c1cc(NC(=O)Nc2ccc(C#Cc3ccc(OCCCN4CCOCC4)cc3)cc2)no1 [Hydrobromide crystaline form I]
AUCINF [1, 5]: 225 ng·h/mL
AUClast [1, 5]: 401 ng·h/mL
Cmax [1, 5]: 36.4 ng/mL
MRTINF [1, 5]: 8.54 h
T1/2 [1, 5]: 6.64 h
Tmax [1, 5]: 1.33 h
